Key:
Assay type in all cases: cell-based
[1] = tested on: Human breast cancer cell lines T-47D; experiment: Caspase cascade activation (Ac-DEVD-R110 fluorogenic substrate) in T-47D cells; settings: T47D cells, 48 h incubation, read-out: caspase potency EC50 T47D
Method: (§1) Human breast cancer cell lines T-47D, human hepatocellular carcinoma cell line SNU398, human colon carcinoma cell line HCT116, human cancer cell line H11299, human Burkitt's lymphoma cell line Namalwa, human lymphoma cell line Raji, and human B cell lymphoblastoid cell line Ramos were grown according to media component mixtures designated by American Type Culture Collection+10% FCS (Invitrogen Corporation), in a 5% CO2-95% humidity incubator at 37° C. T-47D and H1299 cells were maintained at a cell density between 50 and 80% confluency at a cell density of 0.1 to 0.6×10^6 cells/mL. Cells were harvested at 600×g and resuspended at 0.65×10^6 cells/mL into appropriate media+10% FCS. An aliquot of 22.5 μL of cells was added to a well of a 384-well microtiter plate containing 2.5 μL of a 10% DMSO in RPMI-1640 media solution containing 0.16 to 100 μM of 6-(3,4-dimethoxyphenyl)-3-(2-methoxyphenyl)-[1,2,4]triazolo[3,4-b][1,3,4]thiadiazole or other test compound (0.016 to 10 μM final). An aliquot of 22.5 μL of cells was added to a well of a 384-well microtiter plate containing 2.5 μL of a 10% DMSO in RPMI-1640 media solution without test compound as the control sample. The samples were mixed by agitation and then incubated at 37° C. for 48 h in a 5% CO2-95% humidity incubator. After incubation, the samples were removed from the incubator and 25 μL of a solution containing 14 μM of N-(Ac-DEVD)-N′-ethoxycarbonyl-R110 (SEQ ID No.:1) fluorogenic substrate (Cytovia, Inc.; WO99/18856), 20% sucrose (Sigma), 20 mM DTT (Sigma), 200 mM NaCl (Sigma), 40 mM Na PIPES buffer pH 7.2 (Sigma), and 500 μg/mL lysolecithin (Calbiochem) was added. The samples were mixed by agitation and incubated at room temperature. Using a fluorescent plate reader (Model SPECTRAfluor Plus, Tecan), an initial reading (T=0) was made approximately 1-2 min after addition of the substrate solution, employing excitation at 485 nm and emission at 530 nm, to determine the background fluorescence of the control sample. After the 3 h incubation, the samples were read for fluorescence as above (T=3 h).
(§2) The Relative Fluorescence Unit values (RFU) were used to calculate the sample readings as follows: RFU(T=3h)−Control RFU(T=0)=Net RFU(T=3h)
(§3) The activity of caspase cascade activation was determined by the ratio of the net RFU value for 6-(3,4-dimethoxyphenyl)-3-(2-methoxyphenyl)-[1,2,4]triazolo[3,4-b][1,3,4]thiadiazole (Example I) or other test compound to that of control samples. The EC50 (nM) was determined by a sigmoidal dose-response calculation (Prism 3.0, GraphPad Software Inc.).

[2] = tested on: human colon carcinoma cell line HCT116; experiment: Caspase cascade activation in HCT116 cells; settings: HCT-116, 48 h incubation, read-out: caspase potency EC50 HCT116
Method: as §1, §2, §3

[3] = tested on: human lymphoma cell line Raji; experiment: Caspase cascade activation in Raji cells; settings: RAJ1 cells, 48 h incubation, read-out: caspase potency EC50 RAJ1
Method: as §1, §2, §3

[4] = tested on: human B cell lymphoblastoid cell line Ramos; experiment: Caspase cascade activation in Ramos cells; settings: 48 h incubation, read-out: caspase potency EC50 RAMOS
Method: as §1, §2, §3

[5] = tested on: human Burkitt's lymphoma cell line Namalwa; experiment: Caspase cascade activation in Namalwa cells; settings: Burkitts lymphoma cell, 48 h incubation, read-out: caspase potency EC50 Namalwa
Method: as §1, §2, §3

[6] = tested on: Human breast cancer cell lines T-47D; experiment: Inhibition of cell proliferation (GI50, CellTiter-Glo) in T-47D cells; settings: T47D cells, 48 h incubation
Method: (§4) Human breast cancer cell lines T-47D, MX1 and MDAMB435, human colon carcinoma cell line HCT116, human leukemia cell line K562, human lymphoma cell line Raji, human B cell lymphoblastoid cell line Ramos, and human Burkitt's lymphoma cell line Namalwa were grown and harvested as in Example 14. An aliquot of […] of cells (4.4×10^4 cells/mL) was added to a well of a 96-well microtiter plate containing 5 μL of a 10% DMSO in RPMI-1640 media solution containing 10 nM to 100 μM of 6-(3,4-dimethoxyphenyl)-3-(2-methoxyphenyl)-[1,2,4]triazolo[3,4-b][1,3,4]thiadiazole (1 nM to 10 μM final). An aliquot of 45 μL of cells was added to a well of a 96-well microtiter plate containing 5 μL of a 10% DMSO in RPMI-1640 media solution without compound as the control sample for maximal cell proliferation (LMax). The samples were mixed by agitation and then incubated at 37° C. for 48 h in a 5% CO2-95% humidity incubator. After incubation, the samples were removed from the incubator and 25 μL of CellTiter-Glo™ reagent (Promega) was added. The samples were mixed by agitation and incubated at room temperature for 10-15 min. Plates were then read using a luminescent plate reader (Model SPECTRAfluor Plus, Tecan) to give Ltest values.
(§5) The samples were mixed by agitation and then incubated at 37° C. for 0.5 h in a 5% CO2-95% humidity incubator. After incubation, the samples were removed from the incubator and 25 μL of CellTiter-Glo™ reagent (Promega) was added. The samples were mixed by agitation and incubated at […] 10-15 min at room temperature in a 5% CO2-95% humidity incubator. Fluorescence was read as above, (LStart) defining luminescence for initial cell number used as baseline in GI50 determinations.
(§6) GI50 (dose for 50% inhibition of cell proliferation) is the concentration where [(LTest−LStart)/(LMax−LStart)]=0.5.

[7] = tested on: human colon carcinoma cell line HCT116; experiment: Inhibition of cell proliferation (GI50) in HCT116 cells; settings: HCT 116 cells, 48 h incubation
Method: as §4, §5, §6

[8] = tested on: human Burkitt's lymphoma cell line Namalwa; experiment: Inhibition of cell proliferation (GI50) in Namalwa cells; settings: Burkitts lymphoma cell, 48 h incubation
Method: as §4, §5, §6

[9] = tested on: human hepatocellular carcinoma cell line SNU398; experiment: Caspase cascade activation in SNU398 cells; settings: SNU-398, 48 h incubation, read-out: caspase potency EC50 SNU398
Method: as §1, §2, §3

[10] = tested on: human cancer cell line H1299; experiment: Caspase cascade activation in H1299 cells; settings: NCI-H1299, 48 h incubation, read-out: caspase potency EC50 H1299
Method: as §1, §2, §3

[11] = tested on: Human breast cancer cell lines MX1; experiment: Inhibition of cell proliferation (GI50) in MX1 cells; settings: 48 h incubation
Method: as §4, §5, §6

[12] = tested on: human lymphoma cell line Raji; experiment: Inhibition of cell proliferation (GI50) in Raji cells; settings: 48 h incubation
Method: as §4, §5, §6

[13] = tested on: human B cell lymphoblastoid cell line Ramos; experiment: Inhibition of cell proliferation (GI50) in Ramos cells; settings: 48 h incubation
Method: as §4, §5, §6

[14] = tested on: human leukemia cell line K562; experiment: Inhibition of cell proliferation (GI50) in K562 cells; settings: 48 h incubation
Method: as §4, §5, §6

[15] = tested on: Human breast cancer cell lines MDAMB435; experiment: Inhibition of cell proliferation (GI50) in MDAMB435 cells; settings: MDA MB 435 cells, 48 h incubation
Method: as §4, §5, §6

Row | EC50 [1] [nM] | EC50 [2] [nM] | EC50 [3] [nM] | EC50 [4] [nM] | EC50 [5] [nM] | GI50 [6] [nM] | GI50 [7] [nM] | GI50 [8] [nM] | EC50 [9] [nM] | EC50 [10] [nM] | GI50 [11] [nM] | GI50 [12] [nM] | GI50 [13] [nM] | GI50 [14] [nM] | GI50 [15] [nM] | SMILES
1 | 636 | 1020 | 617 | 585 | 580 | 167 | 497 | 138 | – | – | – | – | – | – | – | CCN(CC)c1ccc(-c2nn3c(-c4n[nH]c5c4CCC5)nnc3s2)cc1 [Entry K1, 6-(4-Diethylaminophenyl)-3-(1,4,5,6-tetrahydrocyclopenta[c]pyrazol-3-yl)-[1,2,4]triazolo[3,4-b][1,3,4]thiadiazole]
2 | 395 | 67 | 81 | 40 | 39 | 200 | 89 | 16 | 34 | – | – | – | – | – | – | Cc1ccc(-c2nn3c(-c4n[nH]c5c4CCC5)nnc3s2)cc1 [Entry M1, 6-(4-Methylphenyl)-3-(1,4,5,6-tetrahydrocyclopenta[c]pyrazol-3-yl)-[1,2,4]triazolo[3,4-b][1,3,4]thiadiazole]
3 | 4480 | > 10000 | > 10000 | > 10000 | > 10000 | – | – | – | > 10000 | 5050 | – | – | – | – | – | COc1ccc(-c2nn3c(-c4ccc(Cl)cc4)nnc3s2)cc1 [M, 3-(4-Chlorophenyl)-6-(4-methoxyphenyl)-[1,2,4]triazolo[3,4-b][1,3,4]thiadiazole]
4 | 284 | 21 | – | – | 18 | 100 | 83 | 14 | 19 | – | – | – | – | – | – | COc1ccc(-c2nn3c(-c4ccccc4OC)nnc3s2)cc1N [Entry 7, 6-(3-Amino-4-methoxyphenyl)-3-(2-methoxyphenyl)-[1,2,4]triazolo[3,4-b][1,3,4]thiadiazole]
5 | 121 | 40 | – | – | 18 | 22 | 107 | 21 | 33 | – | – | – | – | – | – | COc1ccccc1-c1nnc2sc(-c3ccc(C)c(N)c3)nn12 [Entry 5, 6-(3-Amino-4-methylphenyl)-3-(2-methoxyphenyl)-[1,2,4]triazolo[3,4-b][1,3,4]thiadiazole]
6 | 2620 | > 10000 | > 10000 | > 10000 | > 10000 | – | – | – | > 10000 | > 10000 | – | – | – | – | – | Clc1ccccc1-c1nnc2sc(-c3ccc4c(c3)OCO4)nn12 [L, 3-(2-Chlorophenyl)-6-(3,4-methylenedioxyphenyl)-[1,2,4]triazolo[3,4-b][1,3,4]thiadiazole]
7 | 4030 | 4570 | > 10000 | 566 | 574 | 900 | – | – | 1720 | – | 9000 | – | – | – | – | CCc1cc(-c2nnc3sc(-c4ccc(OC)cc4)nn23)n(C)n1 [C, 3-(3-Ethyl-1-methyl-1H-pyrazol-5-yl)-6-(4-methoxyphenyl)-[1,2,4]triazolo[3,4-b][1,3,4]thiadiazole]
8 | 2370 | 5750 | > 10000 | 5710 | > 10000 | – | > 10000 | 7690 | 5550 | 5140 | – | 9740 | 6420 | 3270 | – | CCOc1ccc(-c2nn3c(-c4ccccc4C)nnc3s2)cc1 [P, 6-(4-Ethoxyphenyl)-3-o-tolyl-[1,2,4]triazolo[3,4-b][1,3,4]thiadiazole]
9 | 5020 | > 10000 | > 10000 | 5780 | 5510 | – | – | – | > 10000 | > 10000 | – | – | – | – | – | COc1ccc(-c2nn3c(-c4ccc(Cl)cc4Cl)nnc3s2)cc1OC [N, 3-(2,4-Dichlorophenyl)-6-(3,4-dimethoxyphenyl)-[1,2,4]triazolo[3,4-b][1,3,4]thiadiazole]
10 | 3680 | 5450 | > 10000 | > 10000 | > 10000 | 2730 | – | – | 1860 | 3160 | 4080 | – | – | – | 253 | CCc1cc(-c2nnc3sc(-c4ccc(C)cc4)nn23)n(C)n1 [A, 3-(3-Ethyl-1-methyl-1H-pyrazol-5-yl)-6-p-tolyl-[1,2,4]triazolo[3,4-b][1,3,4]thiadiazole]
11 | 203 | 216 | 253 | 241 | 244 | – | 1500 | 450 | 183 | – | – | 651 | 442 | 150 | – | COc1cc(-c2nnc3sc(-c4ccco4)nn23)cc(OC)c1OC [R, 6-(Furan-2-yl)-3-(3,4,5-trimethoxyphenyl)-[1,2,4]triazolo[3,4-b][1,3,4]thiadiazole]
12 | 1540 | 647 | 678 | 379 | 356 | – | 1000 | 253 | 494 | – | – | 549 | 119 | 303 | – | COc1cc(-c2nnc3sc(-c4ccc(C)cc4)nn23)cc(OC)c1OC [Entry B1, 6-p-Tolyl-3-(3,4,5-trimethoxyphenyl)-[1,2,4]triazolo[3,4-b][1,3,4]thiadiazole]
13 | 2430 | > 10000 | > 10000 | > 10000 | > 10000 | – | – | – | > 10000 | > 10000 | – | – | – | – | – | CCOc1ccc(-c2nn3c(-c4ccccc4Cl)nnc3s2)cc1 [O, 3-(2-Chlorophenyl)-6-(4-ethoxyphenyl)-[1,2,4]triazolo[3,4-b][1,3,4]thiadiazole]

Source: patent publication US7732468B2, “3-aryl-6-aryl-[ 1,2,4]triazolo[3,4-b][1,3,4]thiadiazoles and related compounds as activators of caspases and inducers of apoptosis and the use thereof” (Cytovia, Inc., priority 2006, dated 2010)
